Test results: the NIST ThermoML archive (doi:10.1021/je0601513)

Key:
[1] = molar heat capacity at constant pressure; xn = mol fraction of the nth substance listed; conditions: 101 kPa, Liquid, Small sample (50 mg) DSC
[2] = xn = mol fraction of the nth substance listed; conditions: 101 kPa, Liquid; for viscosity: Capillary tube (Ostwald / Ubbelohde) method
[3] = excess molar enthalpy (molar enthalpy of mixing); xn = mol fraction of the nth substance listed; conditions: 101 kPa, Liquid

C[S+](C)[O-] [dimethyl sulfoxide] + CCCO
Conditions | excess molar enthalpy [kcal/mol] | mass density [kg/m3] | molar heat capacity at constant pressure [J/K/mol] | viscosity [mPa·s]
[1], 288.15 K, x1 = 0.0514 | – | – | 138.1 | –
[1], 288.15 K, x1 = 0.1127 | – | – | 137.3 | –
[1], 288.15 K, x1 = 0.2114 | – | – | 136.2 | –
[1], 288.15 K, x1 = 0.3163 | – | – | 135.5 | –
[1], 288.15 K, x1 = 0.418 | – | – | 135.3 | –
[1], 288.15 K, x1 = 0.5029 | – | – | 135.7 | –
[1], 288.15 K, x1 = 0.6216 | – | – | 136.7 | –
[1], 288.15 K, x1 = 0.7068 | – | – | 138.1 | –
[1], 288.15 K, x1 = 0.7975 | – | – | 140 | –
[1], 288.15 K, x1 = 0.8537 | – | – | 141.7 | –
[1], 288.15 K, x1 = 0.8994 | – | – | 143.1 | –
[1], 288.15 K, x1 = 0.9429 | – | – | 144.6 | –
[1], 298.15 K, x1 = 0.0514 | – | – | 143.6 | –
[1], 298.15 K, x1 = 0.1127 | – | – | 142.3 | –
[1], 298.15 K, x1 = 0.2114 | – | – | 140.3 | –
[1], 298.15 K, x1 = 0.3163 | – | – | 139.1 | –
[1], 298.15 K, x1 = 0.418 | – | – | 138.6 | –
[1], 298.15 K, x1 = 0.5029 | – | – | 138.6 | –
[1], 298.15 K, x1 = 0.6216 | – | – | 139.7 | –
[1], 298.15 K, x1 = 0.7068 | – | – | 141.1 | –
[1], 298.15 K, x1 = 0.7975 | – | – | 143.5 | –
[1], 298.15 K, x1 = 0.8537 | – | – | 145.4 | –
[1], 298.15 K, x1 = 0.8994 | – | – | 147.4 | –
[1], 298.15 K, x1 = 0.9429 | – | – | 149.4 | –
[1], 308.15 K, x1 = 0.0514 | – | – | 149.7 | –
[1], 308.15 K, x1 = 0.1127 | – | – | 147.9 | –
[1], 308.15 K, x1 = 0.2114 | – | – | 145.2 | –
[1], 308.15 K, x1 = 0.3163 | – | – | 143 | –
[1], 308.15 K, x1 = 0.418 | – | – | 141.4 | –
[1], 308.15 K, x1 = 0.5029 | – | – | 140.9 | –
[1], 308.15 K, x1 = 0.6216 | – | – | 141.2 | –
[1], 308.15 K, x1 = 0.7068 | – | – | 142.4 | –
[1], 308.15 K, x1 = 0.7975 | – | – | 144.7 | –
[1], 308.15 K, x1 = 0.8537 | – | – | 146.8 | –
[1], 308.15 K, x1 = 0.8994 | – | – | 148.7 | –
[1], 308.15 K, x1 = 0.9429 | – | – | 151 | –
[2], 288.15 K, x1 = 0.0533 | – | 822.73 | – | 2.251
[2], 288.15 K, x1 = 0.0938 | – | 834.33 | – | 2.1
[2], 288.15 K, x1 = 0.1708 | – | 856.51 | – | 1.937
[2], 288.15 K, x1 = 0.2592 | – | 882.15 | – | 1.835
[2], 288.15 K, x1 = 0.346 | – | 907.54 | – | 1.81
[2], 288.15 K, x1 = 0.4294 | – | 932.12 | – | 1.819
[2], 288.15 K, x1 = 0.5115 | – | 956.49 | – | 1.864
[2], 288.15 K, x1 = 0.5981 | – | 982.38 | – | 1.927
[2], 288.15 K, x1 = 0.6853 | – | 1008.66 | – | 1.999
[2], 288.15 K, x1 = 0.7596 | – | 1031.23 | – | 2.086
[2], 288.15 K, x1 = 0.8438 | – | 1057.01 | – | 2.206
[2], 288.15 K, x1 = 0.9368 | – | 1085.71 | – | 2.348
[2], 298.15 K, x1 = 0.0554 | – | 815.18 | – | 1.799
[2], 298.15 K, x1 = 0.1366 | – | 838.3 | – | 1.635
[2], 298.15 K, x1 = 0.22 | – | 862.21 | – | 1.522
[2], 298.15 K, x1 = 0.2987 | – | 884.95 | – | 1.486
[2], 298.15 K, x1 = 0.4289 | – | 922.94 | – | 1.487
[2], 298.15 K, x1 = 0.5022 | – | 944.55 | – | 1.517
[2], 298.15 K, x1 = 0.5992 | – | 973.37 | – | 1.575
[2], 298.15 K, x1 = 0.677 | – | 996.69 | – | 1.633
[2], 298.15 K, x1 = 0.7656 | – | 1023.43 | – | 1.71
[2], 298.15 K, x1 = 0.8358 | – | 1044.81 | – | 1.786
[2], 298.15 K, x1 = 0.9181 | – | 1070.04 | – | 1.881
[2], 298.15 K, x1 = 0.9646 | – | 1084.38 | – | 1.942
[2], 308.15 K, x1 = 0.0537 | – | 806.44 | – | 1.439
[2], 308.15 K, x1 = 0.1336 | – | 828.96 | – | 1.319
[2], 308.15 K, x1 = 0.2147 | – | 852.03 | – | 1.264
[2], 308.15 K, x1 = 0.2987 | – | 876.11 | – | 1.237
[2], 308.15 K, x1 = 0.3876 | – | 901.81 | – | 1.243
[2], 308.15 K, x1 = 0.4707 | – | 926.08 | – | 1.265
[2], 308.15 K, x1 = 0.5552 | – | 950.93 | – | 1.296
[2], 308.15 K, x1 = 0.6418 | – | 976.65 | – | 1.343
[2], 308.15 K, x1 = 0.7191 | – | 999.78 | – | 1.401
[2], 308.15 K, x1 = 0.7998 | – | 1024.11 | – | 1.474
[2], 308.15 K, x1 = 0.877 | – | 1047.58 | – | 1.545
[2], 308.15 K, x1 = 0.965 | – | 1074.53 | – | 1.621
[3], 288.15 K, x1 = 0.042 | 0.0514 | – | – | –
[3], 288.15 K, x1 = 0.0807 | 0.0896 | – | – | –
[3], 288.15 K, x1 = 0.1163 | 0.118 | – | – | –
[3], 288.15 K, x1 = 0.1493 | 0.139 | – | – | –
[3], 288.15 K, x1 = 0.2084 | 0.168 | – | – | –
[3], 288.15 K, x1 = 0.2598 | 0.182 | – | – | –
[3], 288.15 K, x1 = 0.3449 | 0.196 | – | – | –
[3], 288.15 K, x1 = 0.4124 | 0.196 | – | – | –
[3], 288.15 K, x1 = 0.5129 | 0.189 | – | – | –
[3], 288.15 K, x1 = 0.6124 | 0.173 | – | – | –
[3], 288.15 K, x1 = 0.6781 | 0.158 | – | – | –
[3], 288.15 K, x1 = 0.7595 | 0.128 | – | – | –
[3], 288.15 K, x1 = 0.8456 | 0.093 | – | – | –
[3], 288.15 K, x1 = 0.8634 | 0.0822 | – | – | –
[3], 288.15 K, x1 = 0.8939 | 0.0676 | – | – | –
[3], 288.15 K, x1 = 0.9267 | 0.0488 | – | – | –
[3], 288.15 K, x1 = 0.9619 | 0.0265 | – | – | –
[3], 298.15 K, x1 = 0.0422 | 0.0495 | – | – | –
[3], 298.15 K, x1 = 0.0809 | 0.0875 | – | – | –
[3], 298.15 K, x1 = 0.1166 | 0.117 | – | – | –
[3], 298.15 K, x1 = 0.1497 | 0.141 | – | – | –
[3], 298.15 K, x1 = 0.2089 | 0.167 | – | – | –
[3], 298.15 K, x1 = 0.2604 | 0.182 | – | – | –
[3], 298.15 K, x1 = 0.3456 | 0.199 | – | – | –
[3], 298.15 K, x1 = 0.4131 | 0.201 | – | – | –
[3], 298.15 K, x1 = 0.5137 | 0.194 | – | – | –
[3], 298.15 K, x1 = 0.6131 | 0.175 | – | – | –
[3], 298.15 K, x1 = 0.6787 | 0.16 | – | – | –
[3], 298.15 K, x1 = 0.7602 | 0.134 | – | – | –
[3], 298.15 K, x1 = 0.8086 | 0.111 | – | – | –
[3], 298.15 K, x1 = 0.8638 | 0.0853 | – | – | –
[3], 298.15 K, x1 = 0.8942 | 0.0674 | – | – | –
[3], 298.15 K, x1 = 0.9269 | 0.0492 | – | – | –
[3], 298.15 K, x1 = 0.9621 | 0.0265 | – | – | –
[3], 308.15 K, x1 = 0.0421 | 0.0507 | – | – | –
[3], 308.15 K, x1 = 0.0808 | 0.0872 | – | – | –
[3], 308.15 K, x1 = 0.1234 | 0.122 | – | – | –
[3], 308.15 K, x1 = 0.1495 | 0.14 | – | – | –
[3], 308.15 K, x1 = 0.2087 | 0.167 | – | – | –
[3], 308.15 K, x1 = 0.2601 | 0.183 | – | – | –
[3], 308.15 K, x1 = 0.3454 | 0.198 | – | – | –
[3], 308.15 K, x1 = 0.4128 | 0.199 | – | – | –
[3], 308.15 K, x1 = 0.5134 | 0.193 | – | – | –
[3], 308.15 K, x1 = 0.612 | 0.175 | – | – | –
[3], 308.15 K, x1 = 0.6784 | 0.16 | – | – | –
[3], 308.15 K, x1 = 0.7599 | 0.129 | – | – | –
[3], 308.15 K, x1 = 0.8084 | 0.111 | – | – | –
[3], 308.15 K, x1 = 0.8636 | 0.082 | – | – | –
[3], 308.15 K, x1 = 0.8941 | 0.0698 | – | – | –
[3], 308.15 K, x1 = 0.9268 | 0.049 | – | – | –
[3], 308.15 K, x1 = 0.962 | 0.027 | – | – | –
